# Measurements published in ChEMBL document CHEMBL1201862, “PubChem BioAssay data set” (2004).
# Active and inactive are the calls of the source.
# Tests used:
# [1] = tested on: HEK293; assay: cells; format: functional, cell-based; settings: Homo sapiens
# [2] = biological target: T1, Nuclear receptor subfamily 0 group B member 1 (Homo sapiens, UniProt P51843); assay: Luminescence-based cell-based high throughput dose response assay for inhibitors of the orphan nuclear receptor subfamily 0, group B, member 1 (DAX1; NR0B1). [Related pubchem assays (depositor defined):AID504766, AID504790]; format: functional
# T1 sequence (P51843 whole entry): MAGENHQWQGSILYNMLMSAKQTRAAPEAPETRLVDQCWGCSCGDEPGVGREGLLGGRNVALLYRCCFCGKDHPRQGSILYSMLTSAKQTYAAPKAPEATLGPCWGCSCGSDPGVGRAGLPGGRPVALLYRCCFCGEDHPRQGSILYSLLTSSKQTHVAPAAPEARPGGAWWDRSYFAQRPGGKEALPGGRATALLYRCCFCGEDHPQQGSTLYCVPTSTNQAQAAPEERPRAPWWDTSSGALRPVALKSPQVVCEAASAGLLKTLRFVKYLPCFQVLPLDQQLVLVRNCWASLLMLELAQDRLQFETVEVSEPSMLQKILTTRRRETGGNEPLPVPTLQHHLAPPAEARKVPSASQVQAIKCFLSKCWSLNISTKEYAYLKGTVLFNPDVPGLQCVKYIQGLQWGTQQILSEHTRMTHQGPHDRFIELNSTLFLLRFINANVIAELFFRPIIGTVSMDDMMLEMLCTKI
# [3] = tested on: HeLa; assay: ATP-based viability loss in HeLa cells – cell-based, CellTiter-Glo luminescence, cherry-pick samples, cytotoxicity control for MITF activator project, dose response (AID 540259); format: functional; settings: Homo sapiens
# [4] = biological target: T2, Polyadenylate-binding protein 1 (Homo sapiens, UniProt P11940); assay: MLLE binding blockers, Cy5 peptide tracer – biochemical, fluorescence polarization, Cy5-PAM2 peptide, secondary, miRNA deadenylation inhibitor project, dose response (AID 602260); format: functional; settings: read-out: IC50_Mean
# T2 sequence (P11940 whole entry): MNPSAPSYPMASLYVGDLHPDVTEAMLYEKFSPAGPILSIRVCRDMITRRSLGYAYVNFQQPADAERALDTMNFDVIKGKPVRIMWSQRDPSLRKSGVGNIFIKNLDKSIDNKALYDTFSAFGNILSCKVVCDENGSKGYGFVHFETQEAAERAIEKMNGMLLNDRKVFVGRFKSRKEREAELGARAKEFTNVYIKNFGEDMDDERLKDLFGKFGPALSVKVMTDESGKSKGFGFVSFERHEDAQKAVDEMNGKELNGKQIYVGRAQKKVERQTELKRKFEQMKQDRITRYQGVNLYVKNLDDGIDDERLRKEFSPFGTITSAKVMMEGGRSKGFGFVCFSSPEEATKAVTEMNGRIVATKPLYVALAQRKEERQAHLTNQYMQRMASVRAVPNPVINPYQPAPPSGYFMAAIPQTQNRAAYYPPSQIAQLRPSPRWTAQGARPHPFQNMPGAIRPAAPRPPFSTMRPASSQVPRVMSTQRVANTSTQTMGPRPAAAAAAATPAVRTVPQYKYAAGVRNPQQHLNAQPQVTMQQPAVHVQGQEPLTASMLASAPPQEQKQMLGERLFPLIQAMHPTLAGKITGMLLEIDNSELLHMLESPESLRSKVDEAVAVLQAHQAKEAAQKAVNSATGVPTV
# [5] = biological target: Dual specificity tyrosine-phosphorylation-regulated kinase 1A (Rattus norvegicus, UniProt Q63470); format: biochemical, Homo sapiens
# [6] = biological target: T2, Polyadenylate-binding protein 1; assay: MLLE domain peptide-binding blockers, IC50 – biochemical, fluorescence polarization, FITC-PAM2 peptide, dose response (AID 602259); format: functional; settings: read-out: IC50_Mean
# [7] = tested on: Escherichia coli; assay: microbe, parasite or virus in culture
# [8] = tested on: Escherichia coli; assay: microbe, parasite or virus in culture; remark: listed apart in the source
# [9] = biological target: Beta-2 adrenergic receptor (Homo sapiens, UniProt P07550); assay: ADRB2 activation measured by internalization – cell-based, FAP fluorogen, flow cytometry, cherry pick 1, dose response (AID 588763); format: functional
# Chain of Beta-2 adrenergic receptor (P07550 whole entry): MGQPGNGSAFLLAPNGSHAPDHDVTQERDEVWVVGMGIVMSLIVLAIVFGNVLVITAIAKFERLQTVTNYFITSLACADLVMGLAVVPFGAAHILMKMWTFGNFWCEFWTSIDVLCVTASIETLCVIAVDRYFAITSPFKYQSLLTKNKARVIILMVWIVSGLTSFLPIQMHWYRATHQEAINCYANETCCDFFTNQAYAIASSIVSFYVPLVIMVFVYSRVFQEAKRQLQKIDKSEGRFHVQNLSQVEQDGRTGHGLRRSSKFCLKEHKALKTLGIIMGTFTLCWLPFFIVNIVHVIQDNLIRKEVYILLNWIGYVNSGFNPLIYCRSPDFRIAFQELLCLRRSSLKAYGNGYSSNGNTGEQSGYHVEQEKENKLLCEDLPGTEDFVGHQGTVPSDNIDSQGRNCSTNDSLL
# [10] = tested on: H9c2; assay: cells; format: functional, cell-based; settings: Rattus norvegicus, H9c2, Myocardium;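 also: confirmatory concentration-response retest of ultra-high-throughput screening hits for modulation of myocardial damage; cell death induced by hydrogen peroxide oxidative stress; compound pretreatment for 60 min then peroxide exposure for 2 h; potency is for protecting the cells against peroxide damage rather than for killing them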
# [11] = biological target: T3, Rac GTPase-activating protein 1 (Homo sapiens, UniProt Q9H0H5); assay: blockers of MgcRacGAP-driven Rac1 GTP hydrolysis – biochemical, ADP Hunter fluorescence, primary and confirmatory, confirmation (AID 624330); format: functional
# T3 sequence (Q9H0H5 whole entry): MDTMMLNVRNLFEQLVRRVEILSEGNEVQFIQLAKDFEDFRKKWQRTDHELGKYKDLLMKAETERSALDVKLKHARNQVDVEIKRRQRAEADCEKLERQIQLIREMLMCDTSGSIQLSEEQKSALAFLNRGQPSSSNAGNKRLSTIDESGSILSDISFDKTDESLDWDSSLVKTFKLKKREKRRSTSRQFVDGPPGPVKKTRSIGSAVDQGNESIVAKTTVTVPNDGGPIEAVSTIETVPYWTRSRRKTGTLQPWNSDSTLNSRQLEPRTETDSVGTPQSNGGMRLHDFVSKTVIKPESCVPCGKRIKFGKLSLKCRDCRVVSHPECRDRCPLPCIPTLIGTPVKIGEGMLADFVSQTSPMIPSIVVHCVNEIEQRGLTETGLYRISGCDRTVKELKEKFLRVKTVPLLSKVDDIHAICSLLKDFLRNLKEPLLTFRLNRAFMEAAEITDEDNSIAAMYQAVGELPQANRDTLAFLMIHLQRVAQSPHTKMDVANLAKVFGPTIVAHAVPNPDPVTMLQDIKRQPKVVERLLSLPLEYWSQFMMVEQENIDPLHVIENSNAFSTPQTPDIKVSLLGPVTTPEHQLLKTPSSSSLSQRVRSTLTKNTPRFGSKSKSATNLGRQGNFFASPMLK
# [12] = biological target: T4, Corticotropin-releasing factor receptor 2/Corticotropin-releasing factor-binding protein (Homo sapiens, UniProt P24387+Q13324); assay: activators of CRF receptor 2 with binding protein – uHTS hits, confirmation (AID 602473); format: functional; settings: read-out: EC50_Mean
# T4 sequence (Q13324 whole entry): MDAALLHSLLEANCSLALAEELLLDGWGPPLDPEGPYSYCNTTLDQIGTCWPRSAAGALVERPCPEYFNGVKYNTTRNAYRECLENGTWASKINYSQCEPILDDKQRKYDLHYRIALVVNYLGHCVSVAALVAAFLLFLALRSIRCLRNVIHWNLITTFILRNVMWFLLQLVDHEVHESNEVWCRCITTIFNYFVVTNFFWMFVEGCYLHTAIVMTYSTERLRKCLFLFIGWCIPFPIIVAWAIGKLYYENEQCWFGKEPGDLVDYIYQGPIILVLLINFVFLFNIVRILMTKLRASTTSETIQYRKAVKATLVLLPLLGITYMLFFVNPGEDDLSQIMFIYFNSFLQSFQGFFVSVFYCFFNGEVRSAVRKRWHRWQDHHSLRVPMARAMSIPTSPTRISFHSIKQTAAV
# T4 sequence (P24387 whole entry): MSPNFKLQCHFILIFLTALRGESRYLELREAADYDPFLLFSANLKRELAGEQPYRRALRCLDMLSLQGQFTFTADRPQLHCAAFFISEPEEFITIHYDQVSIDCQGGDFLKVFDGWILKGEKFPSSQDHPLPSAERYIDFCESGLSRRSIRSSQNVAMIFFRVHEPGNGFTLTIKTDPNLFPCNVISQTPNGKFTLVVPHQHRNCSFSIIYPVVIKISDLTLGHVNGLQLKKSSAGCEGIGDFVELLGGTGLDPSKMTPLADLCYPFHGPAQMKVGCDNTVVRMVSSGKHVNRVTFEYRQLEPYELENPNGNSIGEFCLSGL
# [13] = biological target: Glucose-6-phosphate 1-dehydrogenase (Homo sapiens, UniProt P11413); assay: inhibition of Homo sapiens G6PD, dose series – biochemical, fluorescence, selectivity assay for P. falciparum G6PD inhibitor project, dose response (AID 504792); format: functional
# Chain of Glucose-6-phosphate 1-dehydrogenase (P11413 whole entry): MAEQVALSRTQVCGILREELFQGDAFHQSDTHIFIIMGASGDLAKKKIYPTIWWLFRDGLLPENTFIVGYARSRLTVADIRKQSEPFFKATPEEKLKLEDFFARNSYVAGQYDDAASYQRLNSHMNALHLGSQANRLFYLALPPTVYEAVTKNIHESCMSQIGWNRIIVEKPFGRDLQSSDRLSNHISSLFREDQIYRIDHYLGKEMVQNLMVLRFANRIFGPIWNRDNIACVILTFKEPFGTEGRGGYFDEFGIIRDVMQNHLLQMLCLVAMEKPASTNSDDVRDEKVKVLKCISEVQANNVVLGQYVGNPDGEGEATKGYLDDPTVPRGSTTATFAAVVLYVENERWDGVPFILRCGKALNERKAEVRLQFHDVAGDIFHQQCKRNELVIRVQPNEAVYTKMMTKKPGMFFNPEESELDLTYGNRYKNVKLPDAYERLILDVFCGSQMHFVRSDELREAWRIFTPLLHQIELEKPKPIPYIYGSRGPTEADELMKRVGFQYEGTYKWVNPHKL
# [14] = biological target: Keap1/Nrf2 (Homo sapiens, UniProt Q14145); assay: disruptors of Keap1 binding to Nrf2 peptide – biochemical, fluorescence polarization, cherry-picked samples, dose response (AID 588683)
# Chain of Keap1/Nrf2 (Q16236 whole entry): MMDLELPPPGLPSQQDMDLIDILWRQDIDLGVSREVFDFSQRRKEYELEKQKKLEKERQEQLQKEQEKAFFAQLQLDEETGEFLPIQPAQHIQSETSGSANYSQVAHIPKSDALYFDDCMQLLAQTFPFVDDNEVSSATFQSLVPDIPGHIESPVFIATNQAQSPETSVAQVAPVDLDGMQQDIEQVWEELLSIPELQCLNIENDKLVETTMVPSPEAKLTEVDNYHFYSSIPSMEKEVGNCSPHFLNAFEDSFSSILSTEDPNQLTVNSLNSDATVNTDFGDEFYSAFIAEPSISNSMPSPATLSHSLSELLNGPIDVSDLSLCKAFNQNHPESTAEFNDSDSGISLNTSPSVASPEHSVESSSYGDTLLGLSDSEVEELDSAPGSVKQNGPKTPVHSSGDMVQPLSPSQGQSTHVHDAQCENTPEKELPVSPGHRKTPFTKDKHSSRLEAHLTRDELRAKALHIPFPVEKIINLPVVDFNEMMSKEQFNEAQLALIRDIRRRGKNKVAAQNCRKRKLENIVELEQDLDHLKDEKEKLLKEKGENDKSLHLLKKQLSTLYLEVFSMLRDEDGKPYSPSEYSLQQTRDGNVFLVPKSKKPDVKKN
# Chain of Keap1/Nrf2 (Q14145 whole entry): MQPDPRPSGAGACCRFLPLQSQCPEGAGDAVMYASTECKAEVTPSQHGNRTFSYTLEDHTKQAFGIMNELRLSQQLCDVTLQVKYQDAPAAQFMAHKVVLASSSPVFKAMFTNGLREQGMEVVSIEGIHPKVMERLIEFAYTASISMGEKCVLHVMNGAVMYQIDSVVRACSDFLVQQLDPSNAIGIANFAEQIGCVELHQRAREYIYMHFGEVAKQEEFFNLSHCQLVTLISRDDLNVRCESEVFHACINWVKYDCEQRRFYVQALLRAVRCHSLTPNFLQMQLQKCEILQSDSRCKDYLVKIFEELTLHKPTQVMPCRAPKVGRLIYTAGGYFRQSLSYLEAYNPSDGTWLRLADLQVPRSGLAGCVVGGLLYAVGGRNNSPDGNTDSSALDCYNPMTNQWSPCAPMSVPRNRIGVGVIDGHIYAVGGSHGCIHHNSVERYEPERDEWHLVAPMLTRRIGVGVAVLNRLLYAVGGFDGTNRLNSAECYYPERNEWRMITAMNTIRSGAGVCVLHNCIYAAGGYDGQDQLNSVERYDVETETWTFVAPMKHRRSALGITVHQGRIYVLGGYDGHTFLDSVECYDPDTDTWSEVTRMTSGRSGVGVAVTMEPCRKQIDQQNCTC
# [15] = biological target: T5, Ubiquitin-conjugating enzyme E2 N (Homo sapiens, UniProt P61088); format: functional;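 also: Dose-response confirmation in a TR-FRET assay detecting UBC13-driven polyubiquitin chain formation, inhibition measured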
# T5 sequence (P61088 whole entry): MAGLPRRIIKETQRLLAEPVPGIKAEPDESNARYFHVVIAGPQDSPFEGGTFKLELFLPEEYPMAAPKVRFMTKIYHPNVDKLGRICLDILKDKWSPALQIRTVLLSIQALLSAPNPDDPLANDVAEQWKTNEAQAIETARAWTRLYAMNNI
# [16] = biological target: Beta Lactamase (Pseudomonas aeruginosa, UniProt Q932Y6); assay: BLA reporter interference, concentration series – BLA reporter cells, FRET fluorescence, artefact control for TLR9-MyD88 binding inhibitor project, dose response (AID 588341); format: cell-based;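 also: cell based assay in CHO-K1 cells stably expressing beta-lactamase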
# Chain of Beta Lactamase (Q932Y6 whole entry, the tested form may be a part): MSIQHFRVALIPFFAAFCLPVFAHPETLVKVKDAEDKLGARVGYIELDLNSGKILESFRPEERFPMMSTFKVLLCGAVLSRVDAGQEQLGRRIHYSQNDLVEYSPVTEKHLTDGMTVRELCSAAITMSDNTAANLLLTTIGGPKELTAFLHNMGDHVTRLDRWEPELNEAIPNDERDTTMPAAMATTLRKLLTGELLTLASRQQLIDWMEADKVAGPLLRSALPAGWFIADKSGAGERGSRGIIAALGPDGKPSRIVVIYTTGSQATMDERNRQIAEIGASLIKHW
# [17] = tested on: CHO; assay: CHO cell viability loss, potency – luminescence, cytotoxicity control for TLR9-MyD88 binding inhibitor project, dose response (AID 588339); format: functional, cell-based, hamster; settings: Cricetulus griseus;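 also: CHO cells stably coexpressing TLR9 and MyD88 fusions from primary screen; compound exposure lasted 48 hours before viability readout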
# [18] = biological target: Large T antigen (Simian virus 40, UniProt P03070); format: functional, Betapolyomavirus macacae;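 also: Confirmatory-stage PubChem screen for compounds that inhibit SV40 T antigen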
# Chain of Large T antigen (P03070 whole entry): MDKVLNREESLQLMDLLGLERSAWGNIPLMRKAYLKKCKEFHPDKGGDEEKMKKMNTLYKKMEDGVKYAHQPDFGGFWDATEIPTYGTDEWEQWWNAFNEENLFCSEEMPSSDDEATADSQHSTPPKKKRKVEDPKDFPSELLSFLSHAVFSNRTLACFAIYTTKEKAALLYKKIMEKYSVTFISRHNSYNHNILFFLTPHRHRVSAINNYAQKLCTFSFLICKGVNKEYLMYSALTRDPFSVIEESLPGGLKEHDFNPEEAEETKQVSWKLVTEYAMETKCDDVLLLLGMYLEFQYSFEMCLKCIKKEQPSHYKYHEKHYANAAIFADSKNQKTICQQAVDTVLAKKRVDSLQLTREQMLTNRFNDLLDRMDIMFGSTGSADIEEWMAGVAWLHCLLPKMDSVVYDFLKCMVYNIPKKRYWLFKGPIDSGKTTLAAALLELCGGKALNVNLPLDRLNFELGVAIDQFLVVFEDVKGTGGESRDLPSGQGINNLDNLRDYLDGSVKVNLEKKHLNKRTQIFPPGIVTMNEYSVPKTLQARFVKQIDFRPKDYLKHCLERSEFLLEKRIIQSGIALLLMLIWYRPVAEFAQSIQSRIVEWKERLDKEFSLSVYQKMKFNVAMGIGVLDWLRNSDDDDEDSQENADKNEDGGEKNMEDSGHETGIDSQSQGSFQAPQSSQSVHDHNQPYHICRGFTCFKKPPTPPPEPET
# [19] = tested on: H4; assay: Luminescence Cell-Based Dose Response HTS to Identify Activators of 5'UTR Stem-Loop Driven Prion Protein mRNA Translation in H4 Neuroglioblastoma Cells. [Related pubchem assays: 1829 (Project Summary), 1814 (Primary HTS)]; format: functional; settings: Homo sapiens
# [20] = Luminescence Cell-Based Dose Confirmation HTS to Identify Activators of 5'UTR Stem-Loop Driven Alpha-Synuclein mRNA Translation in H4 Neuroglioblastoma Cells. [Related pubchem assays: 1829 (Project Summary), 1814 (Primary HTS)]; format: functional
# [21] = biological target: Genome polyprotein (dengue virus type 2, UniProt P29990); assay: flavivirus cap methylation enzyme inhibition – biochemical, confirmation dose response, primary screen (AID 588689); format: functional
# Chain of Genome polyprotein (P29990 2492-3391 limits assumed): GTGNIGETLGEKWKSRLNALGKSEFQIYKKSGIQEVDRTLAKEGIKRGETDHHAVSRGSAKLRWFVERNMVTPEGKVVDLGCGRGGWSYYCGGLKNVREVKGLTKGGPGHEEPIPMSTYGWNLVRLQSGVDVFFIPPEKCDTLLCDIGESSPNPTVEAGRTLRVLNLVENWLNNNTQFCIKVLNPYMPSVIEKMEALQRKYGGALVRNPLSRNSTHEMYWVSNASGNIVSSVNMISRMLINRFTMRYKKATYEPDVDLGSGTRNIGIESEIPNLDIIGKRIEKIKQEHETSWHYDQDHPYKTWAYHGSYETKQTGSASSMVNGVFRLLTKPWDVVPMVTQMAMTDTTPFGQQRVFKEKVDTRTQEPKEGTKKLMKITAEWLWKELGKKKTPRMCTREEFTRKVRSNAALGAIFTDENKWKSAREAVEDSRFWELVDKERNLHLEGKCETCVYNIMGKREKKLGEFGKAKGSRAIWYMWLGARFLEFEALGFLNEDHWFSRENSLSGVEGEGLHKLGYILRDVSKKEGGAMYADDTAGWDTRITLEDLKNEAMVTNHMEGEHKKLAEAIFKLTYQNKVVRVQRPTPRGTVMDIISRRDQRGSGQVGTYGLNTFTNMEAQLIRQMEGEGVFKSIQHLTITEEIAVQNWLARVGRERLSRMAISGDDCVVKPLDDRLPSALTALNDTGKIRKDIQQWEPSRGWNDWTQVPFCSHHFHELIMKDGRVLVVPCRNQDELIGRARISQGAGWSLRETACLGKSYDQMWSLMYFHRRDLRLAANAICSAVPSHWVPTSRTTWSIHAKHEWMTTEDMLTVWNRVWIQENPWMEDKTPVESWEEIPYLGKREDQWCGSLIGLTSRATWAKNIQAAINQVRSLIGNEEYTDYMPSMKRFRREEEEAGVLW
# [22] = Luminescence Cell-Based Dose Response HTS to Identify Activators of Luciferase Translation or Activity in H4 […] Cells. [Related pubchem assays: 1829 (Project Summary), 1814 (Primary HTS)]; format: functional
# [23] = tested on: Vero; assay: viability of Vero cells under compound – cytotoxicity control for flavivirus capping enzyme inhibitors (AID 588742); format: functional; settings: Chlorocebus sabaeus
# [24] = tested on: INS1; assay: INS-1E survival protection against cytokine death – cell-based, luminescence, retest, dose response (AID 449756); format: functional; settings: Rattus norvegicus;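 also: cell death triggered by IL-1 beta plus TNF-alpha plus IFN-gamma mixture; protective hits raise ATP signal compared with cytokine alone wells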
# [25] = NIH-3T3 fibroblast cytotoxicity, dose response, cytotoxicity control, cell-based, fluorescence, Alamar Blue, secondary assay (AID 2327); format: functional;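 also: NIH-3T3 mouse fibroblasts cultured with fluconazole at 8 µg/mL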
structure (smiles),measurement,setting,value
CC(=O)c1csc(Nc2ccccc2Cl)n1,IC50,[1],> 67.6 µM (inactive)
same,IC50,[2],> 67.6 µM (inactive)
CCc1nc(NC(C)(C)C)c2cnn(-c3ccccc3)c2n1,AC50,[3],134 µM (active)
Oc1cccc(NC(=S)N=Nc2c(O)[nH]c3ccccc23)c1,IC50,[4],> 66 µM (inactive)
same,AC50,[5],12.4 µM (active)
same,IC50,[6],> 66 µM (inactive)
Cc1cc(C)c2c(N)c(C(=O)N/N=C/c3ccccc3)sc2n1,IC50,[1],> 67.5 µM (inactive)
same,IC50,[2],> 67.5 µM (inactive)
COc1ccccc1Nc1nc(C)cs1,AC50,[7],26.8 µM (active)
same,AC50,[8],60.7 µM (active)
CC(=O)Nc1ccc(S(=O)(=O)N(Cc2cccnc2)Cc2cc3ccccc3nc2O)cc1,EC50,[9],0.801 µM (active)
same,IC50,[10],> 79 µM (inactive)
O=C(O)c1ccc(/C=N/Nc2nc3ccccc3[nH]2)cc1,IC50,[1],> 67.6 µM (inactive)
same,IC50,[2],> 67.6 µM (inactive)
Nc1ccc2c3c(cccc13)-c1ccccc1-2,IC50,[11],39.2 µM (active)
same,EC50,[12],4.79 µM (active)
same,IC50,[13],> 80 µM (inactive)
same,AC50,[14],2.01 µM (active)
CCCCCN(C(=O)CCC(=O)OCC(=O)N(C)Cc1ccc(C)cc1)c1c(N)n(CCCC)c(=O)[nH]c1=O,AC50,[8],> 380 µM (inactive)
NC(=O)CC(NC(=O)c1ccc(Br)cc1)c1ccc(N2CCN(c3ccccn3)CC2)c([N+](=O)[O-])c1 (centres undefined),EC50,[9],0.213 µM (active)
NC(=O)CC(NC(=O)c1cccc(Br)c1)c1ccc(N2CCN(c3ccccn3)CC2)c([N+](=O)[O-])c1 (centres undefined),EC50,[9],0.225 µM (active)
same,AC50,[5],66.8 µM (active)
COC(=O)c1c(-c2ccc(S(C)(=O)=O)cc2)sc2ccc(OC)cc12,IC50,[15],> 20 µM (inactive)
same,AC50,[3],28 µM (active)
CCN(CC)c1ccc(-c2nc3cnccn3c2NC2CCCC2)cc1,IC50,[16],5.29 µM (active)
same,IC50,[17],> 16.6 µM (inactive)
same,IC50,[18],21.9 µM (active)
COC(=O)/C(=C1\Oc2ccc(C(C)(C)C)cc2S1)C(F)(F)F,AC50,[3],57.7 µM (active)
O=[N+]([O-])c1ccc(-[n+]2ccc3ccccc3c2)c([N+](=O)[O-])c1,EC50,[9],10.2 µM (inactive)
same,EC50,[19],> 120 µM (not active)
same,EC50,[20],> 120 µM (not active)
same,IC50,[21],> 100 µM (active)
same,EC50,[22],11.4 µM (active)
same,CC50,[23],24.9 µM (active)
same,IC50,[13],> 80 µM (inactive)
same,IC50,[18],79.1 µM (active)
same,AC50,[24],3.36 µM (active)
c1cnc(SCCOc2ccc3c(c2)CCC3)nc1,EC50,[25],> 160 µM (inactive)
same,IC50,[1],> 67.6 µM (inactive)
same,IC50,[2],> 67.6 µM (inactive)
CC(=O)NC(Cc1c[nH]c2ccccc12)C(=O)O (centres undefined),IC50,[1],> 67.6 µM (inactive)
same,IC50,[2],> 67.6 µM (inactive)
COc1ccc(C(=O)/C=C/c2ccc(N(C)C)cc2)c(OC)c1,IC50,[16],4.71 µM (active)
same,IC50,[17],> 49.8 µM (inactive)
O=C1NC(=O)C2C1C(c1ccc([N+](=O)[O-])cc1)=NN2Cc1ccccc1 (centres undefined),IC50,[16],10.3 µM (inactive)
same,IC50,[17],> 49.8 µM (inactive)
C/C(Cl)=C/CSc1nn2c(=O)c3ccccc3nc2s1,AC50,[3],36.3 µM (active)
CN(C(=O)c1cc2sccc2n1C)C1CCCCC1,AC50,[3],218 µM (active)
Brc1cc(Br)c2nc(-c3ccc(N4CCOCC4)cc3)ccc2c1,IC50,[16],2.37 µM (active)
same,IC50,[17],> 49.8 µM (inactive)
N#C/C(=C\c1cn[nH]c1-c1ccc(Cl)cc1)C(=O)NCc1ccccc1,AC50,[7],12.4 µM (active)
same,AC50,[8],300 µM (active)
Oc1ccc(Nc2nc(-c3ccccc3)nc3ccccc23)cc1,AC50,[5],0.461 µM (active)
CS(=O)(=O)c1ccc([C@@H](O)[C@@H](CF)NC(=O)C(Cl)Cl)cc1 [FLORFENICOL],AC50,[8],3.83 µM (active)
